Source: patent US20220041606A1, “POSITIVE ALLOSTERIC MODULATORS OF THE MUSCARINIC ACETYLCHOLINE RECEPTOR M1” (Vanderbilt University, priority 2020, published 2022)
pEC50: −log10 of the molar value.

How the values were obtained:
[1] = molecular target: T1, human mAChR M1 (Homo sapiens, UniProt P11229); assay: mAChR M1 cell-based functional assay (calcium mobilization), PAM activity: increase in the EC20 acetylcholine response; settings: CHO-K1 cells expressing hM1; potentiation of EC20 acetylcholine response
T1 construct: host or cells: CHO-K1 cells (ATCC), stably transfected using Lipofectamine2000
T1 sequence (P11229 1-460): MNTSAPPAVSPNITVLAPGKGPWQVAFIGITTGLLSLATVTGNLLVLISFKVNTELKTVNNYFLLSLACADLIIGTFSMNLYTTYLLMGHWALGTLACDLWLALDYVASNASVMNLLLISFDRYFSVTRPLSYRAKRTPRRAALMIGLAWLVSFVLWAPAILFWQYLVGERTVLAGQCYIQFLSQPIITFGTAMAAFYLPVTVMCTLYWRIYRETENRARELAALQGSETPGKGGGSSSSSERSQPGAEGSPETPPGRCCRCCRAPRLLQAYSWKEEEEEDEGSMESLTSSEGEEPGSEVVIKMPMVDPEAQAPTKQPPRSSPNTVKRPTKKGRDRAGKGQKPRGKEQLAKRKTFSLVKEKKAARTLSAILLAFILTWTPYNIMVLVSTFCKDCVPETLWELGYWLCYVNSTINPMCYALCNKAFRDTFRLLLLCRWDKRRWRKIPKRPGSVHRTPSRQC
Method in brief: (§1)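 Fluorescence ratio calcium read-out (Fluo-4 AM, FDSS 6000) in human M1-expressing CHO-K1 cells. Agonist activity taken as concentration-dependent rise after compound addition; potentiation as enhancement of a subsequent EC20 acetylcholine challenge. Curves from 11-point threefold dilutions fitted by four-parameter logistic; Emax expressed versus acetylcholine maximum.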

[2] = molecular target: T1, human mAChR M1; assay: mAChR M1 cell-based functional assay (calcium mobilization), agonist activity upon compound addition; settings: CHO-K1 cells expressing hM1; for pEC50: compound alone, before acetylcholine addition; for Emax: relative to the maximum for acetylcholine
Method in brief: as §1

Row | Compound | pEC50 [1] | Emax [1] | pEC50 [2] | Emax [2]
1 | Cn1ccc(-c2ccc(Cn3cc(C(=O)N[C@H]4CCCCC[C@@H]4O)c4nccnc4c3=O)c(F)c2)n1 [Compound A65, 6-(2-fluoro-4-(1-methyl-1H-pyrazol-3-yl)benzyl)-N-((1S,2S)-2-hydroxycycloheptyl)-5-oxo-5,6-dihydropyrido[3,4-b]pyrazine-8-carboxamide] | 5.28 | 63% | < 5.00 | 6%
2 | CC(C)[C@@H](CO)NC(=O)c1cn(Cc2c(F)cc(-c3cccc4nn(C)cc34)cc2F)c(=O)c2nccnc12 [Compound A75, (S)-6-(2,6-difluoro-4-(2-methyl-2H-indazol-4-yl)benzyl)-N-(1-hydroxy-3-methylbutan-2-yl)-5-oxo-5,6-dihydropyrido[3,4-b]pyrazine-8-carboxamide] | 5.45 | 56% | < 5.00 | < 5%
3 | O=C(N[C@H]1CCOC[C@@H]1O)c1cn(Cc2ccc(-c3cscn3)cc2)c(=O)c2cccnc12 [Compound A57, N-((3R,4S)-3-hydroxytetrahydro-2H-pyran-4-yl)-5-oxo-6-(4-(thiazol-4-yl)benzyl)-5,6-dihydro-1,6-naphthyridine-8-carboxamide] | 5.94 | 68% | < 5.00 | 25%
4 | Cn1cc2c(-c3cc(F)c(Cn4cc(C(=O)N[C@H]5CCCCC[C@@H]5O)c5nccnc5c4=O)c(F)c3)cccc2n1 [Compound A67, 6-(2,6-difluoro-4-(2-methyl-2H-indazol-4-yl)benzyl)-N-((1S,2S)-2-hydroxycycloheptyl)-5-oxo-5,6-dihydropyrido[3,4-b]pyrazine-8-carboxamide] | 6.21 | 77% | 5.30 | 46%

Continued, values first:

Row | pEC50 [1] | Emax [1] | pEC50 [2] | Emax [2] | Compound
5 | ≤ 5.00 | 55% | < 5.00 | 7% | Cn1ccc(-c2ccc(Cn3cc(C(=O)N[C@H]4CCOC[C@@H]4O)c4nccnc4c3=O)c(F)c2)n1 [Compound A63, 6-(2-fluoro-4-(1-methyl-1H-pyrazol-3-yl)benzyl)-N-((3R,4S)-3-hydroxytetrahydro-2H-pyran-4-yl)-5-oxo-5,6-dihydropyrido[3,4-b]pyrazine-8-carboxamide]
6 | ≤ 5.00 | 30% | < 5.00 | < 5% | Cn1cc(-c2ccc(Cn3cc(C(=O)NCC(C)(C)O)c4nccnc4c3=O)c(F)c2)cn1 [Compound A80, 6-(2-fluoro-4-(1-methyl-1H-pyrazol-4-yl)benzyl)-N-(2-hydroxy-2-methylpropyl)-5-oxo-5,6-dihydropyrido[3,4-b]pyrazine-8-carboxamide]
7 | 5.10 | 67% | < 5.00 | 12% | Cn1ccc(-c2ccc(Cn3cc(C(=O)N[C@H]4CCCC[C@@H]4O)c4nccnc4c3=O)c(F)c2)n1 [Compound A55, 6-(2-fluoro-4-(1-methyl-1H-pyrazol-3-yl)benzyl)-N-((1S,2S)-2-hydroxycyclohexyl)-5-oxo-5,6-dihydropyrido[3,4-b]pyrazine-8-carboxamide]
8 | 5.78 | 83% | < 5.00 | < 5% | Cn1ccc(-c2ccc(Cn3cc(C(=O)N[C@H]4CCC[C@@H]4O)c4ncccc4c3=O)c(F)c2)n1 [Compound A3, 6-(2-fluoro-4-(1-methyl-1H-pyrazol-3-yl)benzyl)-N-((1S,2S)-2-hydroxycyclopentyl)-5-oxo-5,6-dihydro-1,6-naphthyridine-8-carboxamide]
9 | 5.56 | 44% | < 5.00 | < 5% | Cn1ccc(-c2ccc(Cn3cc(C(=O)NC4CC5(COC5)C4)c4ncccc4c3=O)c(F)c2)n1 [Compound A5, 6-(2-Fluoro-4-(1-methyl-1H-pyrazol-3-yl)benzyl)-5-oxo-N-(2-oxaspiro[3.3]heptan-6-yl)-5,6-dihydro-1,6-naphthyridine-8-carboxamide]
